The target in one test is human TRPML1 (Homo sapiens, UniProt Q9GZU1). As to the kind of experiment: Fluorescent TRPML1 assay (Fluo4-AM calcium fluorescence, HEK-293 Trex cells). In kind it is cell-based. The method, then: (§1) HEK-293 Trex cells were stably transfected with a construct consisting of the human coding sequence for TRPML1 cloned into the tet-inducible plasmid pCDNA5 T/O. Mutations were introduced into the TRPML1 sequence to facilitate expression on the cell surface (Silvia Vergarajauregui, Rosa Puertollano Traffic. 2006 March; 7 (3): 337-353). Briefly, the cells are cultured in 150 mm round tissue culture dishes containing 20 mL of media. The day before the assay the cells are rinsed with DPBS —Ca—Mg and then treated briefly with Trypsin-EDTA. The Trypsin-EDTA is diluted with growth media, and cells are counted. 38×10^6 cells are re-plated into 150 mm round tissue culture dishes in media containing 0.5 ug/mL doxycycline to induce expression of hTRPML1.
(§2) The day of the experiment cells are lifted from the plates as above and collected by centrifugation. The cells are then suspended in dye loading buffer consisting of Ringer's solution supplemented with 0.1% Pluronic Acid and 1 micromolar Fluo4-AM dye. Cells are loaded for ˜60 minutes in the dark with occasional mixing. The cells are collected by centrifugation, the loading media aspirated, and the cells resuspended in 25 mL Ringer's solution and incubated ˜60 minutes in the dark. The cells are again collected by centrifugation, rinsed in Ringer's Solution and resuspended to 0.2×10^6 cells/mL in modified Ringer's solution containing 10 mM calcium.
(§3) Compounds are dissolved to a concentration of 10 millimolar with DMSO. Compound plates are created by dispensing compounds into 384 well black wall clear bottom plates (Greiner 781091). Positive and negative controls are included on each plate. Typically, different amounts of each compound are tested ranging from 100 nanoMoles (20 micromolar final concentration) decreasing in half-log steps to 31 picoMoles (6 nanomolar final concentration). Each concentration is typically tested in triplicate.
(§4) 50 microliters of dye-loaded cells are dispensed into each well of the compound assay plate created above. The fluorescence in each well is then determined with an excitation wavelength of 480 nm and an emission wavelength of 540 nm using either a Molecular Devices SpectraMax multimode plate reader or a Hamamatsu FDSS/uCell plate imager.
(§5) The resulting fluorescence for each well is exported as an ascii file and loaded into our LIMS for analysis. The percent activity of each compound at each concentration is determined by comparison to the positive and negative control wells included in each plate.
(§6) EC50 values were calculated using a non-linear regression of Prism. In the table, “A” indicates an EC50 of less than 100 nM, “B” indicates an EC50 range from 100 nM to 500 nM; “C” indicates an EC50 range from 500 nM to 2 μM; and “D” indicates an EC50 greater than 2 μM.

Another test concerns the target T1, TRPML3 (Homo sapiens, UniProt Q8TDD5).
T1 construct: expressed in transfected cells
T1 sequence (Q8TDD5 1-553): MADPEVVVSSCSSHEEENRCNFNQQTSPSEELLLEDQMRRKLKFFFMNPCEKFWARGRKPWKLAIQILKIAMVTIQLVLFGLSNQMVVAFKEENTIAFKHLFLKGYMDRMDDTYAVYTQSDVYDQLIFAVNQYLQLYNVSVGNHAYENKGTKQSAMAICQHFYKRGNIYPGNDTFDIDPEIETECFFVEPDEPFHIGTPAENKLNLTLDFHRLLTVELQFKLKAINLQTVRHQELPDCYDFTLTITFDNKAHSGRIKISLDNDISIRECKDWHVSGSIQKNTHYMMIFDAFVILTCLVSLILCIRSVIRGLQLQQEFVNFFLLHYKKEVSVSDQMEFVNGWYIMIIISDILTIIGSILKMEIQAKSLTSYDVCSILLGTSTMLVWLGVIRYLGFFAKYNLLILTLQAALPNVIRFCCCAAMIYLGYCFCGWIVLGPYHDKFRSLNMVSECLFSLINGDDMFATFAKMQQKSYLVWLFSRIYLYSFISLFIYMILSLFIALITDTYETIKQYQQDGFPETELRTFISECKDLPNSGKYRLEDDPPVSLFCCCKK
As to the kind of experiment: Fluorescent TRPML3 assay (as for TRPML1). In kind it is cell-based. Here is the method:
as §1, §2, §3, §4, §5
Assays for TRPML2 and TRPML3 were performed as above for TRPML1, by substituting the appropriate TRPML2 or TRPML3 subtype for the TRPML1.
as §6

A value given as a limit tells only on which side of the number the result lay.

human TRPML1, sequence (Q9GZU1 whole entry L15A/L16A/L577A/L578A, form open): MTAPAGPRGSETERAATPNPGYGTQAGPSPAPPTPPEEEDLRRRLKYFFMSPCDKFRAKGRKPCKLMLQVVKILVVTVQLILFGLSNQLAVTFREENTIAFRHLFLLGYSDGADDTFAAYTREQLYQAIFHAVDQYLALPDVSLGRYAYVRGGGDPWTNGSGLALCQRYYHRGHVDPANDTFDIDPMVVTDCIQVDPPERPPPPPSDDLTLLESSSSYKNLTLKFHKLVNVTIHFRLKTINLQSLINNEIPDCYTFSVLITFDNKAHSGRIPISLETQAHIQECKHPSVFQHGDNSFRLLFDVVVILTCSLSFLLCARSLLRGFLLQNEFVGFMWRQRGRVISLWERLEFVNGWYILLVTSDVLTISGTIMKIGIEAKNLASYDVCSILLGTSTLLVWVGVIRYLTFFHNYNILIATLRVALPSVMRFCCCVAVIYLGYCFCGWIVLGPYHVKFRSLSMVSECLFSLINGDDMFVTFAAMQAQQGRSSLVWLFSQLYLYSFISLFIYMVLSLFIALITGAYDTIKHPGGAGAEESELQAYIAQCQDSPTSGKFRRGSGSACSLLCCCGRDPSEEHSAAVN

What is called EC50 is the midpoint of the concentration-response curve. For the compound `C[C@H]1CN(C(=O)C(C)(C)F)CCN1c1ncnc2c1c(C1CC1)cn2-c1cc(C#N)ccn1` [Compound 114, (S)-2-(5-cyclopropyl-4-(4-(2-fluoro-2-methylpropanoyl)-2-methylpiperazin-1-yl)-7H-pyrrolo[2,3-d]pyrimidin-7-yl)isonicotinonitrile], the EC50 is under 100 nM at human TRPML1 (Table 3, compounds 101-177) and under 100 nM on TRPML3 (Table 3, compounds 101-177).

Turning to `CC(C)C(=O)N1CCN(c2ncnc3c2c(-c2ccccc2F)cn3-c2cc(C#N)ccn2)[C@H](C)C1` [Compound 138, (R)-2-(5-(2-fluorophenyl)-4-(4-isobutyryl-2-methylpiperazin-1-yl)-7H-pyrrolo[2,3-d]pyrimidin-7-yl)isonicotinonitrile], the EC50 was 100 to 500 nM at human TRPML1 (Table 3, compounds 101-177) and under 100 nM at TRPML3 (Table 3, compounds 101-177). For `C[C@@H]1CN(c2ncnc3c2c(-c2ccccc2)cn3-c2cc(C#N)ccn2)CCN1C(=O)C1CC1` [Compound 124, (R)-2-(4-(4-(cyclopropanecarbonyl)-3-methylpiperazin-1-yl)-5-phenyl-7H-pyrrolo[2,3-d]pyrimidin-7-yl)isonicotinonitrile] the same measures were 100 to 500 nM and 100 to 500 nM. For `C[C@H]1CN(C(=O)C2CC2)CCN1c1ncnc2c1c(-c1ccccc1)cn2-c1cc(C#N)ccn1` [Compound 123, (S)-2-(4-(4-(cyclopropanecarbonyl)-2-methylpiperazin-1-yl)-5-phenyl-7H-pyrrolo[2,3-d]pyrimidin-7-yl)isonicotinonitrile] the same measures were 100 to 500 nM and 100 to 500 nM.

In the case of `CC(C)C(=O)N1C[C@H](C)N(c2ncnc3c2c(-c2ccccc2F)cn3-c2cc(Cl)ccn2)C[C@H]1C` [Compound 168, 1-((2R,5S)-4-(7-(4-chloropyridin-2-yl)-5-(2-fluorophenyl)-7H-pyrrolo[2,3-d]pyrimidin-4-yl)-2,5-dimethylpiperazin-1-yl)-2-methylpropan-1-one], the EC50 was under 100 nM on human TRPML1 (Table 3, compounds 101-177) and under 100 nM on TRPML3 (Table 3, compounds 101-177). As to `COC(C)(C)C(=O)N1CCN(c2ncnc3c2c(C(F)(F)F)cn3-c2cc(C#N)ccn2)[C@@H](C)C1` [Compound 210, (S)-2-(4-(4-(2-methoxy-2-methylpropanoyl)-2-methylpiperazin-1-yl)-5-(trifluoromethyl)-7H-pyrrolo[2,3-d]pyrimidin-7-yl)isonicotinonitrile], the EC50 on human TRPML1 (Table 3, compounds 201-283) lay in the range of 100 to 500 nM; at TRPML3 (Table 3, compounds 201-283), 500 to 2000 nM. For `CC(C)C(=O)N1C[C@H](C)N(c2ncnc3c2c(N2CCC2)cn3-c2cc(F)cc(F)c2)C[C@H]1C` [Compound 218, 1-((2R,5S)-4-(5-(azetidin-1-yl)-7-(3,5-difluorophenyl)-7H-pyrrolo[2,3-d]pyrimidin-4-yl)-2,5-dimethylpiperazin-1-yl)-2-methylpropan-1-one] the same measures were 100 to 500 nM and 500 to 2000 nM.

Regarding `CC(F)C(=O)N1CCN(c2ncnc3c2c(-c2ccccc2F)cn3-c2cc(C#N)ccn2)[C@@H](C)C1` (stereo partly drawn) [Compound 113, 2-(5-(2-fluorophenyl)-4-((2S)-4-(2-fluoropropanoyl)-2-methylpiperazin-1-yl)-7H-pyrrolo[2,3-d]pyrimidin-7-yl)isonicotinonitrile], the 50% effective concentration (EC50) is under 100 nM on human TRPML1 (Table 3, compounds 101-177) and 100 to 500 nM at TRPML3 (Table 3, compounds 101-177). Regarding `CC(C)C(=O)N1CCN(c2ncnc3c(-c4cc(C#N)ccn4)cn(-c4ccccn4)c23)[C@@H](C)C1` [Compound 211, (S)-2-(4-(4-isobutyryl-2-methylpiperazin-1-yl)-5-(pyridin-2-yl)-5H-pyrrolo[3,2-d]pyrimidin-7-yl)isonicotinonitrile], the concentration for a half-maximal effect (EC50) on human TRPML1 (Table 3, compounds 201-283) is over 2000 nM; at TRPML3 (Table 3, compounds 201-283), over 2000 nM. Consider `CC(C)C(=O)N1C[C@H](C)N(c2ncnc3c2c(C2CCC2)cn3-c2cc(C#N)ccn2)C[C@H]1C` [Compound 238, 2-(5-cyclobutyl-4-((2S,5R)-4-isobutyryl-2,5-dimethylpiperazin-1-yl)-7H-pyrrolo[2,3-d]pyrimidin-7-yl)isonicotinonitrile], for which the concentration giving a half-maximal response (EC50) on human TRPML1 (Table 3, compounds 201-283) is 100 to 500 nM. As to `CC(C)C(=O)N1C[C@H](C)N(c2ncnc3c2c(C2CCC2)cn3-c2cccc(F)c2)C[C@H]1C` [Compound 248, 1-((2R,5S)-4-(5-cyclobutyl-7-(3-fluorophenyl)-7H-pyrrolo[2,3-d]pyrimidin-4-yl)-2,5-dimethylpiperazin-1-yl)-2-methylpropan-1-one], the EC50 at human TRPML1 (Table 3, compounds 201-283) is over 2000 nM; on TRPML3 (Table 3, compounds 201-283), over 2000 nM. In the case of `CC(C)CC(=O)N1CCN(c2ncnc3c2c(C2CC2)cn3-c2cc(C#N)ccn2)[C@@H](C)C1` [Compound 137, (S)-2-(5-cyclopropyl-4-(2-methyl-4-(3-methylbutanoyl)piperazin-1-yl)-7H-pyrrolo[2,3-d]pyrimidin-7-yl)isonicotinonitrile], the EC50 at human TRPML1 (Table 3, compounds 101-177) was under 100 nM; on TRPML3 (Table 3, compounds 101-177), over 2000 nM.

Regarding `CC(C)C(=O)N1C[C@H](C)N(c2ncnc3c(-c4cc(C#N)ccn4)cn(-c4ccccc4F)c23)C[C@H]1C` [Compound 213, 2-(5-(2-fluorophenyl)-4-((2S,5R)-4-isobutyryl-2,5-dimethylpiperazin-1-yl)-5H-pyrrolo [3,2-d]pyrimidin-7-yl)isonicotinonitrile], the half-maximal effective concentration (EC50) at human TRPML1 (Table 3, compounds 201-283) was under 100 nM; on TRPML3 (Table 3, compounds 201-283), under 100 nM.

On to `CC(C)(O)C(=O)N1CCN(c2ncnc3c2c(-c2ccccc2F)cn3-c2cc(C#N)ccn2)C2(CC2)C1` [Compound 174, 2-(5-(2-fluorophenyl)-4-(7-(2-hydroxy-2-methylpropanoyl)-4,7-diazaspiro[2.5]octan-4-yl)-7H-pyrrolo[2,3-d]pyrimidin-7-yl)isonicotinonitrile], for which the EC50 at human TRPML1 (Table 3, compounds 101-177) is under 100 nM; at TRPML3 (Table 3, compounds 101-177) it was under 100 nM.

For the compound `CC(C)C(=O)N1CC2(CCN(c3ncnc4c3c(-c3ccccc3F)cn4-c3cc(C#N)ccn3)C2)C1` [Compound 101, 2-(5-(2-fluorophenyl)-4-(2-isobutyryl-2,6-diazaspiro[3.4]octan-6-yl)-7H-pyrrolo[2,3-d]pyrimidin-7-yl)isonicotinonitrile], the EC50 is over 2000 nM at human TRPML1 (Table 3, compounds 101-177) and 500 to 2000 nM on TRPML3 (Table 3, compounds 101-177). For the compound `CC(C)C(=O)N1CCN(c2ncnc3c2c(N2CCC2)cn3-c2cc(C#N)ccn2)C[C@H]1C` [Compound 273, (R)-2-(5-(azetidin-1-yl)-4-(4-isobutyryl-3-methylpiperazin-1-yl)-7H-pyrrolo[2,3-d]pyrimidin-7-yl)isonicotinonitrile], the EC50 on human TRPML1 (Table 3, compounds 201-283) is under 100 nM; on TRPML3 (Table 3, compounds 201-283), under 100 nM. For `CC(C)C(=O)N1C[C@H](C)N(c2ncnc3c2c(-c2ccccc2F)cn3-c2cc(C#N)ccn2)C[C@H]1C` (single isomer, unassigned) [Compound 281], the EC50 on human TRPML1 (Table 3, compounds 201-283) lay within 100 to 500 nM. The same measure, in the same setting: the result for `CC(C)C(=O)N1C[C@H](C)N(c2ncnc3c2c(-c2ccccc2F)cn3-c2cc(C#N)ccn2)C[C@H]1C` (single isomer, unassigned) [Compound 234] reads under 100 nM. In the case of `C[C@@H]1CN(c2ncnc3c2c(-c2ccccc2F)cn3-c2cc(C#N)ccn2)CCN1C(=O)C1CC1` [Compound 111, (R)-2-(4-(4-(cyclopropanecarbonyl)-3-methylpiperazin-1-yl)-5-(2-fluorophenyl)-7H-pyrrolo[2,3-d]pyrimidin-7-yl)isonicotinonitrile], the concentration for a half-maximal effect (EC50) at human TRPML1 (Table 3, compounds 101-177) is under 100 nM.

With `CC(C)C(=O)N1C[C@H](C)N(c2ncnc3c2c(-c2ccccc2F)cn3-c2cc(C#N)ccn2)C[C@H]1C` (single isomer, unassigned) [Compound 233], at human TRPML1 (Table 3, compounds 201-283), the half-maximal effective concentration (EC50) was under 100 nM.

These data come from patent publication US20240398812A1 (Caraway Therapeutics, Inc., priority 2021, published 2024).
